Data taken from PubChem BioAssay (NCI).
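Grown in 96-well plates, cells were treated for 48 hours with each compound at five concentrations. Insufficient inhibition: endpoint recorded as highest concentration tested. At the TGI there is no net growth.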

Columns and labels:
Test in all cases: growth of human tumour cells (NCI), 48 h
[1] = system: CCRF-CEM leukemia
[2] = system: DMS 114 small cell lung
[3] = system: HL-60(TB) leukemia
[4] = system: ACHN renal
[5] = system: COLO 205 colon
[6] = system: SNB-75 CNS
[7] = system: K-562 leukemia
[8] = system: SF-539 CNS
[9] = system: A498 renal
[10] = system: HOP-18 NSCLC
[11] = system: OVCAR-4 ovarian
[12] = system: SK-MEL-2 melanoma
[13] = system: NCI-H522 lung
[14] = system: DLD-1 colon
[15] = system: DMS 273 small cell lung
[16] = system: NCI-H23 lung
[17] = system: RXF 393 renal
[18] = system: HCT-15 colon
[19] = system: U251 CNS
[20] = system: SNB-78 CNS
[21] = system: HOP-62 NSCLC
[22] = system: HOP-92 NSCLC
[23] = system: UACC-62 melanoma
[24] = system: UO-31 renal
[25] = system: M19-MEL melanoma
[26] = system: SF-295 CNS
[27] = system: NCI-H226 lung
[28] = system: LXFL 529 NSCLC
[29] = system: SW-620 colon
[30] = system: SN12C renal
[31] = system: OVCAR-8 ovarian
[32] = system: HCC-2998 colon
[33] = system: RPMI-8226 leukemia
[34] = system: SF-268 CNS
[35] = system: KM12 colon
[36] = system: M14 melanoma
[37] = system: KM20L2 colon
[38] = system: A549 NSCLC
[39] = system: SNB-19 CNS
[40] = system: LOX IMVI melanoma
[41] = system: MALME-3M melanoma
[42] = system: CAKI-1 renal
[43] = system: EKVX NSCLC
[44] = system: 786-0 renal
[45] = system: MOLT-4 leukemia
[46] = system: IGROV1 ovarian
[47] = system: UACC-257 melanoma
[48] = system: XF 498 CNS
[49] = system: SK-MEL-5 melanoma
[50] = system: TK-10 renal
[51] = system: OVCAR-5 ovarian
[52] = system: NCI-H460 lung
[53] = system: HT29 colon
[54] = system: SK-OV-3 ovarian
[55] = system: SK-MEL-28 melanoma
[56] = system: HCT-116 colon
[57] = system: OVCAR-3 ovarian
[58] = system: SR leukemia

Measured: TGI

O=c1cc(-c2ccccc2)[nH]c2cc(Cl)ccc12
12.1 µM: [44]
83.2 µM: [47]
3.2 µM: [37]
3.91 µM: [19]
56 µM: [27]
15.8 µM: [18]
3.29 µM: [2]
21.2 µM: [7]
57.5 µM: [22]
14.8 µM: [52]
33.1 µM: [31]
82.3 µM: [30]
23.8 µM: [14]
15.9 µM: [45]
3.95 µM: [54]
16.9 µM: [29]
0.612 µM: [3]
2.07 µM: [26]
52.5 µM: [35]
11.9 µM: [23]
53.2 µM: [28]
1.08 µM: [17]
11.4 µM: [1] | [42]
1.71 µM: [48]
10.5 µM: [15] | [33]
6.44 µM: [39]
13.3 µM: [21]
0.358 µM: [13]
31 µM: [4]
21.7 µM: [40]
4.76 µM: [32]
1.99 µM: [8]
6.07 µM: [6]
4.35 µM: [16]
19.6 µM: [49]
2.82 µM: [5]
not listed: [57] | [58]
> 100 µM: all other assays above

CCOC(=O)CNc1nnnn1C1OC(CO)C(O)C1O (stereo unspecified)
not listed: [3] | [10] | [11] | [16] | [22] | [39] | [55] | [58]
> 100 µM: all other assays above

C[Si](C)(C)C(Sc1ccccc1)(Sc1ccccc1)Sc1ccccc1
94.1 µM: [22]
not listed: [10] | [13] | [21] | [27] | [36] | [41] | [46] | [51] | [53] | [57]
> 100 µM: all other assays above

CCOC(=O)c1cccnc1C(OC(C)=O)OC(C)=O
not listed: [33]
> 100 µM: all other assays above
